PubChem BioAssay AID2060599 (Molecular Pharmacology Branch, DTP, NCI, 2025)
Several values for one entry are separate records, joined by “and”; a condition that tells them apart may be missing. Equal entries are not always repeated.

System: 817829-284-R-J1-PDC complex spheroids, viability
Assay: Anticancer human tumor 817829-284-R-J1-PDC patient-derived colon adenocarcinoma cell line growth inhibition [CLK]
Conditions: for viability, T/C: stronger effect = lower value
Summary of the method: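 Multi-cell-type spheroids combined patient-derived tumor cells with HUVEC endothelial cells and human mesenchymal stem cells. Paired agents were dosed in half-log steps down from about clinical Cmax, or from 10 microM where Cmax was unknown.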

[1] = curve of first compound, second compound 0.0316 µM
[2] = curve of first compound, second compound 0.1 µM
[3] = curve of first compound, second compound 0.316 µM
[4] = curve of first compound, second compound 1 µM
[5] = curve of first compound, second compound 3.16 µM
[6] = curve of first compound, second compound 10 µM
[7] = second compound 0.0316 µM, first compound 0.0316 µM
[8] = second compound 0.0316 µM, first compound 0.1 µM
[9] = second compound 0.0316 µM, first compound 0.316 µM
[10] = second compound 0.0316 µM, first compound 1 µM
[11] = second compound 0.0316 µM, first compound 3.16 µM
[12] = second compound 0.0316 µM, first compound 10 µM
[13] = second compound 0.1 µM, first compound 0.0316 µM
[14] = second compound 0.1 µM, first compound 0.1 µM
[15] = second compound 0.1 µM, first compound 0.316 µM
[16] = second compound 0.1 µM, first compound 1 µM
[17] = second compound 0.1 µM, first compound 3.16 µM
[18] = second compound 0.1 µM, first compound 10 µM
[19] = second compound 0.316 µM, first compound 0.0316 µM
[20] = second compound 0.316 µM, first compound 0.1 µM
[21] = second compound 0.316 µM, first compound 0.316 µM
[22] = second compound 0.316 µM, first compound 1 µM
[23] = second compound 0.316 µM, first compound 3.16 µM
[24] = second compound 0.316 µM, first compound 10 µM
[25] = second compound 1 µM, first compound 0.0316 µM
[26] = second compound 1 µM, first compound 0.1 µM
[27] = second compound 1 µM, first compound 0.316 µM
[28] = second compound 1 µM, first compound 1 µM
[29] = second compound 1 µM, first compound 3.16 µM
[30] = second compound 1 µM, first compound 10 µM
[31] = second compound 3.16 µM, first compound 0.0316 µM
[32] = second compound 3.16 µM, first compound 0.1 µM
[33] = second compound 3.16 µM, first compound 0.316 µM
[34] = second compound 3.16 µM, first compound 1 µM
[35] = second compound 3.16 µM, first compound 3.16 µM
[36] = second compound 3.16 µM, first compound 10 µM
[37] = second compound 10 µM, first compound 0.0316 µM
[38] = second compound 10 µM, first compound 0.1 µM
[39] = second compound 10 µM, first compound 0.316 µM
[40] = second compound 10 µM, first compound 1 µM
[41] = second compound 10 µM, first compound 3.16 µM
[42] = second compound 10 µM, first compound 10 µM
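Also: spheroids exposed to the agents for seven days before readout.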

C#Cc1c(F)ccc2cc(O)cc(-c3ncc4c(N5CC6CCC(C5)N6)nc(OCC56CCCN5CC(F)C6)nc4c3F)c12 (stereo not given) + CN1CCN(c2cc(C(=O)Nc3cc4cc(-c5cnn(C)c5)ccc4cn3)ccn2)CC1
IC50 [1]: 4.96 µM
IC50 [2]: < 0.0316 µM
IC50 [3]: < 0.0316 µM
IC50 [4]: < 0.0316 µM
IC50 [5]: < 0.0316 µM
IC50 [6]: < 0.0316 µM
viability, T/C [7]: 83.1%
viability, T/C [8]: 61%
viability, T/C [9]: 66.3%
viability, T/C [10]: 68.5%
viability, T/C [11]: 57.3%
viability, T/C [12]: 40.5%
viability, T/C [13]: 24.2%
viability, T/C [14]: 19.4%
viability, T/C [15]: 19.8%
viability, T/C [16]: 17.4%
viability, T/C [17]: 15.2%
viability, T/C [18]: 11.8%
viability, T/C [19]: 2.71%
viability, T/C [20]: 2.39%
viability, T/C [21]: 2.14%
viability, T/C [22]: 2.39%
viability, T/C [23]: 2.31%
viability, T/C [24]: 1.5%
viability, T/C [25]: 0.1%
viability, T/C [26]: 0.14%
viability, T/C [27]: 0.17%
viability, T/C [28]: 0.12%
viability, T/C [29]: 0.09%
viability, T/C [30]: 0.09%
viability, T/C [31]: 0.15%
viability, T/C [32]: 0.13%
viability, T/C [33]: 0.15%
viability, T/C [34]: 0.16%
viability, T/C [35]: 0.13%
viability, T/C [36]: 0.07%
viability, T/C [37]: 0.1%
viability, T/C [38]: 0.11%
viability, T/C [39]: 0.11%
viability, T/C [40]: 0.16%
viability, T/C [41]: 0.17%
viability, T/C [42]: 0.13%

O=C(c1cc(Cc2n[nH]c(=O)c3ccccc23)ccc1F)N1CCN(C(=O)C2CC2)CC1 + CN1CCN(c2cc(C(=O)Nc3cc4cc(-c5cnn(C)c5)ccc4cn3)ccn2)CC1
IC50 [1]: < 0.0316 µM
IC50 [2]: < 0.0316 µM
IC50 [3]: < 0.0316 µM
IC50 [4]: < 0.0316 µM
IC50 [5]: < 0.0316 µM
IC50 [6]: < 0.0316 µM
viability, T/C [7]: 49.4%
viability, T/C [8]: 44.3%
viability, T/C [9]: 46.2%
viability, T/C [10]: 45.6%
viability, T/C [11]: 36.7%
viability, T/C [12]: 26.6%
viability, T/C [13]: 15.5%
viability, T/C [14]: 19.8%
viability, T/C [15]: 18.6%
viability, T/C [16]: 20.7%
viability, T/C [17]: 17.8%
viability, T/C [18]: 18.6%
viability, T/C [19]: 1.83%
viability, T/C [20]: 1.77%
viability, T/C [21]: 2.03%
viability, T/C [22]: 1.63%
viability, T/C [23]: 1.4%
viability, T/C [24]: 1.54%
viability, T/C [25]: 0.12%
viability, T/C [26]: 0.1%
viability, T/C [27]: 0.12%
viability, T/C [28]: 0.09%
viability, T/C [29]: 0.12%
viability, T/C [30]: 0.09%
viability, T/C [31]: 0.2%
viability, T/C [32]: 0.18%
viability, T/C [33]: 0.17%
viability, T/C [34]: 0.16%
viability, T/C [35]: 0.23%
viability, T/C [36]: 0.22%
viability, T/C [37]: 0.06%
viability, T/C [38]: 0.08%
viability, T/C [39]: 0.15%
viability, T/C [40]: 0.09%
viability, T/C [41]: 0.18%
viability, T/C [42]: 0.15%

CC1(C)CCC(CN2CCN(c3ccc(C(=O)NS(=O)(=O)c4ccc(NCC5CCOCC5)c([N+](=O)[O-])c4)c(Oc4cnc5[nH]ccc5c4)c3)CC2)=C(c2ccc(Cl)cc2)C1 + CN1CCN(c2cc(C(=O)Nc3cc4cc(-c5cnn(C)c5)ccc4cn3)ccn2)CC1
IC50 [1]: 4.03 µM
IC50 [2]: < 0.0316 µM
IC50 [3]: < 0.0316 µM
IC50 [4]: < 0.0316 µM
IC50 [5]: < 0.0316 µM
IC50 [6]: < 0.0316 µM
viability, T/C [7]: 92.8%
viability, T/C [8]: 64.9%
viability, T/C [9]: 46.8%
viability, T/C [10]: 80.8%
viability, T/C [11]: 63.2%
viability, T/C [12]: 1.02%
viability, T/C [13]: 18%
viability, T/C [14]: 19.6%
viability, T/C [15]: 16.1%
viability, T/C [16]: 18.4%
viability, T/C [17]: 20%
viability, T/C [18]: 0.96%
viability, T/C [19]: 1.84%
viability, T/C [20]: 1.97%
viability, T/C [21]: 1.65%
viability, T/C [22]: 2.48%
viability, T/C [23]: 1.41%
viability, T/C [24]: 0.06%
viability, T/C [25]: 0.11%
viability, T/C [26]: 0.09%
viability, T/C [27]: 0.08%
viability, T/C [28]: 0.09%
viability, T/C [29]: 0.09%
viability, T/C [30]: 0.06%
viability, T/C [31]: 0.12%
viability, T/C [32]: 0.12%
viability, T/C [33]: 0.12%
viability, T/C [34]: 0.11%
viability, T/C [35]: 0.13%
viability, T/C [36]: 0.07%
viability, T/C [37]: 0.06%
viability, T/C [38]: 0.07%
viability, T/C [39]: 0.09%
viability, T/C [40]: 0.09%
viability, T/C [41]: 0.17%
viability, T/C [42]: 0.1%

CC(Nc1ccc2c(c1)OCCn1cc(N3C(=O)OCC3C(F)F)nc1-2)C(N)=O (stereo not given)
viability, T/C (compound 0.0316 µM): 62.2% and 116%
viability, T/C (compound 0.1 µM): 92% and 69.5%
viability, T/C (compound 0.316 µM): 72.2% and 60.7%
viability, T/C (compound 1 µM): 51.6% and 59.1%
viability, T/C (compound 3.16 µM): 52.4% and 39.5%
viability, T/C (compound 10 µM): 35.8% and 37.7%
IC50 (curve of compound): 1.42 µM and 0.834 µM

Nc1ccccc1NC(=O)c1ccc(CNC(=O)OCc2cccnc2)cc1
viability, T/C (compound 0.0316 µM): 89%
viability, T/C (compound 0.1 µM): 85.3%
viability, T/C (compound 0.316 µM): 53.5%
viability, T/C (compound 1 µM): 35.9%
viability, T/C (compound 3.16 µM): 10%
viability, T/C (compound 10 µM): 0.1%
IC50 (curve of compound): 0.465 µM
